Assay in all cases: Kinase panel (mobility shift)
Holding throughout (type): biochemical

One experiment addresses BRK (Homo sapiens, UniProt Q13882). Summed up:
(§1)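 Compound at 5 um + kinase + fluor-labeled substrate, standardized mix; rxn stopped; electrophoretic separation of product/substrate on chip; activity = product vs substrate peak fluorescence. Bins A ≥95%, B 90-94%, C 80-89%.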

The target in another experiment is HIPK3 (Homo sapiens, UniProt Q9H422). In short, it runs like this: as §1
Sequence of HIPK3 (Q9H422 whole entry, species assumed): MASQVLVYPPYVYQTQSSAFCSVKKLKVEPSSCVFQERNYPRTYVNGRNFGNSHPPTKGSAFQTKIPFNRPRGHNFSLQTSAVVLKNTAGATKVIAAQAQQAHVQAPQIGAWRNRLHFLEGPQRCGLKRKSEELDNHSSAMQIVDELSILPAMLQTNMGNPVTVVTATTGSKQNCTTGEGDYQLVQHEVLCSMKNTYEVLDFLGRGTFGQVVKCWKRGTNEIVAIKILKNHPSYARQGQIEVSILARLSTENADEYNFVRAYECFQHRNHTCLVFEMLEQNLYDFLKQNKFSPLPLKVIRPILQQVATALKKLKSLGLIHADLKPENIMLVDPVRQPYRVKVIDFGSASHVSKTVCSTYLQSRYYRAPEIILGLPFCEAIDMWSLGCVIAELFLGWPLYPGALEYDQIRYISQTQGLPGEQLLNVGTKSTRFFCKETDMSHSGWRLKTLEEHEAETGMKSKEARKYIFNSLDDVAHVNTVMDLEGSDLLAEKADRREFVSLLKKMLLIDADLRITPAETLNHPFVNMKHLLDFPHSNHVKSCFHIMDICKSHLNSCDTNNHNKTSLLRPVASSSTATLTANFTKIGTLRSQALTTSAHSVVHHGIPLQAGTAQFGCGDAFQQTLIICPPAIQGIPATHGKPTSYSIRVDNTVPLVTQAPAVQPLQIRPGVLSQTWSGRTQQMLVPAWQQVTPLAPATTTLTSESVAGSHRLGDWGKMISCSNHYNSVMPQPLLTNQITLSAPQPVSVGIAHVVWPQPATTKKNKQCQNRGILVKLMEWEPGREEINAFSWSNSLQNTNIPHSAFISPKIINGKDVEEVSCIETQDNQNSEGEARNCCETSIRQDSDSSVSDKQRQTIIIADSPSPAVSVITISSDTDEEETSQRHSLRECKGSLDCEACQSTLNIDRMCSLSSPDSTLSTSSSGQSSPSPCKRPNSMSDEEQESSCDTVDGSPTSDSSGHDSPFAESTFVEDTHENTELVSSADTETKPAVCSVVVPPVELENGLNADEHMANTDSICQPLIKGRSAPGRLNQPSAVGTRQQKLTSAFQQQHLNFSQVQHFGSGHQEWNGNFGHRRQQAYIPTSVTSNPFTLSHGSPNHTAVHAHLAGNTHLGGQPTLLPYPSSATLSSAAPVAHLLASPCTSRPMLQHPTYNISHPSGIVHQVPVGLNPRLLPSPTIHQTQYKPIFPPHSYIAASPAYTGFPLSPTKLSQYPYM
The next experiment deals with RIPK2 (Homo sapiens, UniProt O43353). Summed up:
as §1

In a further experiment the target is PDGFR-b (Homo sapiens, UniProt P09619). In short, it runs like this: as §1
Sequence of PDGFR-b (P09619 33-1106, species assumed): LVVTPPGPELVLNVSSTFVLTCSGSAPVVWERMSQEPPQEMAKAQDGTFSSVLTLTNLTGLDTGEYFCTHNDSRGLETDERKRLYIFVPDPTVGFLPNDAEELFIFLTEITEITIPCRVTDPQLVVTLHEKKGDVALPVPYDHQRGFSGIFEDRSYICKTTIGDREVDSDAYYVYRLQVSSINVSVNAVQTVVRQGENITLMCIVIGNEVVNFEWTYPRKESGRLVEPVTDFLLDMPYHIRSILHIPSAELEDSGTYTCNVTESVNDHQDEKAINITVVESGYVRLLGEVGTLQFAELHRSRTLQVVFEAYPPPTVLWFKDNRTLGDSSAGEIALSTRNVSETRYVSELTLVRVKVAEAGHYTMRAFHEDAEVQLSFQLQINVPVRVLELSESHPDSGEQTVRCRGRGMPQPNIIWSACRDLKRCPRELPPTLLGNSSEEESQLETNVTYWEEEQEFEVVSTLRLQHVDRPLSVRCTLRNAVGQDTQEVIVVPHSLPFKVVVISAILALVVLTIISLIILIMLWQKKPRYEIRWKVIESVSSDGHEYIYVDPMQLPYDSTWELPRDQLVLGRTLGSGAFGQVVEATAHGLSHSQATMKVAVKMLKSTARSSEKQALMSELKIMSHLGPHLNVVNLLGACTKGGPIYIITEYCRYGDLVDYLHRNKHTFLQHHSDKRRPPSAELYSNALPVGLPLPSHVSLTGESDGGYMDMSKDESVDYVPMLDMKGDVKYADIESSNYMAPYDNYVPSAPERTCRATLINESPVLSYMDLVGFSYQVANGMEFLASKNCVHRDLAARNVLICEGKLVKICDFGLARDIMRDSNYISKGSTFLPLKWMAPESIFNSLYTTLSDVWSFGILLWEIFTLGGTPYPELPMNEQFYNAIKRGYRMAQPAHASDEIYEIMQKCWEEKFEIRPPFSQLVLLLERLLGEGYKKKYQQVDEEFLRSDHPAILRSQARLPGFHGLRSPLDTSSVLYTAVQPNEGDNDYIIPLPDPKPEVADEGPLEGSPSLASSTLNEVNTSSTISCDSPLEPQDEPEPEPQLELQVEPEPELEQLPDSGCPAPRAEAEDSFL
The next experiment has as its target T1, TYRO3 (Homo sapiens, UniProt Q06418).
T1 sequence (Q06418 41-890): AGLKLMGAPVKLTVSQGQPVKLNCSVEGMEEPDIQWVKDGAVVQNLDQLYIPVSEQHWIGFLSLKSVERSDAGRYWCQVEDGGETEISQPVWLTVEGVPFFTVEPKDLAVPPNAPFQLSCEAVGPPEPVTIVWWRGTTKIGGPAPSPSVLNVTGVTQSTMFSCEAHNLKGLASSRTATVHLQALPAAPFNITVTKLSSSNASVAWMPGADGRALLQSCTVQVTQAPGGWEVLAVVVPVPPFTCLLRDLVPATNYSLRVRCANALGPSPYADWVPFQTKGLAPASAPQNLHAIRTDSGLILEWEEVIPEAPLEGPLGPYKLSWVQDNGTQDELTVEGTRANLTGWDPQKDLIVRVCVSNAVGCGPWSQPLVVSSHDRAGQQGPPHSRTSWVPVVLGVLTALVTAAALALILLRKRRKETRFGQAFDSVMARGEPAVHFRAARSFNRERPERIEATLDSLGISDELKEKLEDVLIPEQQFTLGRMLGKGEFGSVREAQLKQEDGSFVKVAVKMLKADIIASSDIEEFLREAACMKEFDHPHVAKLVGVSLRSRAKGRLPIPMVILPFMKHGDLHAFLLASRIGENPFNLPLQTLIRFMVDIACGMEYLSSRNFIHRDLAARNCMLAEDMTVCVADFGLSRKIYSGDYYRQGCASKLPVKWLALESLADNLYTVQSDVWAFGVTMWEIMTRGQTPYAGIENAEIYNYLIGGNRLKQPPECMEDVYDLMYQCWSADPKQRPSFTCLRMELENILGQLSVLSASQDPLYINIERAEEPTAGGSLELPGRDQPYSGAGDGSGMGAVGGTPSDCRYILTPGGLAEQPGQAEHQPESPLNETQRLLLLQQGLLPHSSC
In short, it runs like this:
as §1

The next experiment concerns the target PDGFR-a (Homo sapiens, UniProt P16234). Summed up: as §1
In another experiment the target is KIT (Homo sapiens, UniProt P10721). Summed up: as §1
A further experiment addresses P38-a (Homo sapiens, UniProt Q16539). Particulars: at 5 um. In short, it runs like this:
as §1

For another experiment, the target named is EPH-A4 (Homo sapiens, UniProt P54764). Summed up:
as §1

The target of another experiment is TIE2 (Homo sapiens, UniProt Q02763). In short, it runs like this:
as §1

The target in the next experiment is P38-b (Homo sapiens, UniProt Q15759). Summed up:
as §1

The target in the next experiment is T2, MUSK (Homo sapiens, UniProt O15146).
T2 sequence (O15146 24-869): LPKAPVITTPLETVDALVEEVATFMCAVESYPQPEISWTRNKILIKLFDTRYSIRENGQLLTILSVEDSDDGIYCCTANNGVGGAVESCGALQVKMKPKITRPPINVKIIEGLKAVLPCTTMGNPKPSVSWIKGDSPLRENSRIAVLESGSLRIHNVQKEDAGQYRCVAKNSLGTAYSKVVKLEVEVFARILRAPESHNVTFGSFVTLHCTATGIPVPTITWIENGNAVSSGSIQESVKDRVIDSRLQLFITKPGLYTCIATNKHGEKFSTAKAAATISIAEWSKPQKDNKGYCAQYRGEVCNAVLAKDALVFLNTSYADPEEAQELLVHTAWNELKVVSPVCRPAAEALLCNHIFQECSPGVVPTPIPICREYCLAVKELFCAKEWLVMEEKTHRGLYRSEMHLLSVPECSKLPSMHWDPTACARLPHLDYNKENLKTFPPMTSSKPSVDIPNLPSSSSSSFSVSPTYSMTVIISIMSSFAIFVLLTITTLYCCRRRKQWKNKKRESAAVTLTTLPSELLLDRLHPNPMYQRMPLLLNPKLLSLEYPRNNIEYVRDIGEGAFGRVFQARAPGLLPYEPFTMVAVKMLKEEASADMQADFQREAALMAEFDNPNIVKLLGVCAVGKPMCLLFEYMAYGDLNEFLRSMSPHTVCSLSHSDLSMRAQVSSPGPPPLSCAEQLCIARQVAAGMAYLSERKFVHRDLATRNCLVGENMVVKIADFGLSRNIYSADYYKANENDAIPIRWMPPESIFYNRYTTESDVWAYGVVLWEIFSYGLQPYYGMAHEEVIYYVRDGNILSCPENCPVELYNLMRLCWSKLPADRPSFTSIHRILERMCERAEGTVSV
Summed up:
as §1

The next experiment addresses LOK (Homo sapiens, UniProt O94804). Particulars: at 5 um. Summed up: as §1

Some results are limits rather than exact numbers.

Sequence of EPH-A4 (P54764 20-986, species assumed): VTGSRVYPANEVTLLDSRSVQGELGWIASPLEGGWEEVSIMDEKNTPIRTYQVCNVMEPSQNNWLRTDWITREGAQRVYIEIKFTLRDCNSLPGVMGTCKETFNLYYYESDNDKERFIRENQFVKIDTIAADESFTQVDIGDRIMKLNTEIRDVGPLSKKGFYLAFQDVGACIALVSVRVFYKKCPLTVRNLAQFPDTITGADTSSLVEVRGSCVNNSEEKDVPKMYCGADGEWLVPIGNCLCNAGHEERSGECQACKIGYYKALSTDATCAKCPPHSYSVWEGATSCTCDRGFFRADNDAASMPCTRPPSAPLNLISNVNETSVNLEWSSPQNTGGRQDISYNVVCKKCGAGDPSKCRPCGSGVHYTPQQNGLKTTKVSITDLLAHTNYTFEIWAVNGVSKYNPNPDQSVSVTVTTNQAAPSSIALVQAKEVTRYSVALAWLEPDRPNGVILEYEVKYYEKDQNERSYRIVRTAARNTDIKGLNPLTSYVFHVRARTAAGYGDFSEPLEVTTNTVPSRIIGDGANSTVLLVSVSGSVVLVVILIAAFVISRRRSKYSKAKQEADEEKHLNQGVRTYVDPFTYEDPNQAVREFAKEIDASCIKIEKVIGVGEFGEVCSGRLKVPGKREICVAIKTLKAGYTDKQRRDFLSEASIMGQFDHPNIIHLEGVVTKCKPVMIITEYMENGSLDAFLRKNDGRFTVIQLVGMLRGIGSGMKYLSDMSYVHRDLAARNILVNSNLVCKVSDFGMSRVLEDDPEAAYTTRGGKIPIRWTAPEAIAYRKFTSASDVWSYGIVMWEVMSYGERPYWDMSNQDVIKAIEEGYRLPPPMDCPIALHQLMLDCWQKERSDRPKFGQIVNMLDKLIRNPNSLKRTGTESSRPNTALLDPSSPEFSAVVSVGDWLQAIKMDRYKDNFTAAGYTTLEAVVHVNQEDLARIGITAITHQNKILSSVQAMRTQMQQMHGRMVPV
Sequence of TIE2 (Q02763 23-1124, species assumed): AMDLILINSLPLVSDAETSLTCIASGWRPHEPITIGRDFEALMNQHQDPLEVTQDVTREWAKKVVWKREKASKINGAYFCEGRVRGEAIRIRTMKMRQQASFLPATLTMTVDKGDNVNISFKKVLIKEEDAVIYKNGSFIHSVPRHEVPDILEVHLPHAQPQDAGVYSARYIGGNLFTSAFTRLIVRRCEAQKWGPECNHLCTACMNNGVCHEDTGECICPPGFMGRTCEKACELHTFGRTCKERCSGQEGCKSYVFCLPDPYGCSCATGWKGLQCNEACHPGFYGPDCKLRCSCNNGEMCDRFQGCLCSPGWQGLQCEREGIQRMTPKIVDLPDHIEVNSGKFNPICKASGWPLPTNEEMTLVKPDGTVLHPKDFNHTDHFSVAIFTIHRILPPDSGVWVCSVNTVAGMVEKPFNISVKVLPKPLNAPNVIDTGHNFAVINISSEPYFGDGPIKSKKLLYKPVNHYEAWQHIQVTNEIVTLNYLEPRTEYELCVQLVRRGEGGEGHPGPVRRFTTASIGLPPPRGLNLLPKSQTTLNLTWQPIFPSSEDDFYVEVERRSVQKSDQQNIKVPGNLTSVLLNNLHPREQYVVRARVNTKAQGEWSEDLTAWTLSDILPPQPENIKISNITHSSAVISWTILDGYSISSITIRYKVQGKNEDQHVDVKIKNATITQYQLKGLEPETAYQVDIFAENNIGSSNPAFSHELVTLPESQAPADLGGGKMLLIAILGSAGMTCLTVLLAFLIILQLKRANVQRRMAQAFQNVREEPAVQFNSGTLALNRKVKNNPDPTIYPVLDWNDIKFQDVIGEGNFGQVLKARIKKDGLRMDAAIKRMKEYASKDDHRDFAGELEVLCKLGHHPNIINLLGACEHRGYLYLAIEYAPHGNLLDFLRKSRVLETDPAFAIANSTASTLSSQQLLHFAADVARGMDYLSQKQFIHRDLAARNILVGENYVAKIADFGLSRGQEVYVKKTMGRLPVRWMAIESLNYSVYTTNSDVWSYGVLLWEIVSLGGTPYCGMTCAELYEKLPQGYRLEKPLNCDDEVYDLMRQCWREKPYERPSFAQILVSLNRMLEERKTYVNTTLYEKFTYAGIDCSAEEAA
Sequence of BRK (Q13882 whole entry, species assumed): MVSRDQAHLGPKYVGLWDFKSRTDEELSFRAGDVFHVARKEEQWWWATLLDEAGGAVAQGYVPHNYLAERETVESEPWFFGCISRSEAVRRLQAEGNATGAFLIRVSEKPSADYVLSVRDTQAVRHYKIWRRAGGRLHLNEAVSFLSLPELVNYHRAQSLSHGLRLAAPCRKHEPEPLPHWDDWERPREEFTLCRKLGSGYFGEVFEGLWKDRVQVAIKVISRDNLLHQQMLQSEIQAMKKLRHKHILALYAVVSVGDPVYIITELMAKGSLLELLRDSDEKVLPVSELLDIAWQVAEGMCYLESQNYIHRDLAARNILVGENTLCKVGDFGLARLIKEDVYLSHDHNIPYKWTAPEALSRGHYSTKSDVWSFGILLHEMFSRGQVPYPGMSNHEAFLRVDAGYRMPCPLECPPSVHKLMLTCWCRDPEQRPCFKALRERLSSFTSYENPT

`CNC(=O)c1cc(Oc2ccc(NC(=O)c3nc(SC)oc3-c3ccc(F)s3)cc2F)ccn1` [Compound 16]: the inhibition at 5 µM at BRK, at HIPK3, at RIPK2, on PDGFR-b, on TYRO3 and at PDGFR-a was under 50% each time. Besides, the inhibition at 5 µM at KIT, at EPH-A4, at TIE2, at P38-b and on MUSK was under 50% in each case. Also, the “inhibition of kinase activity, P38-a” value on P38-a was “E (category E is less than 50%)”. Further, at LOK, the “inhibition of kinase activity, LOK” value is on record as “D (category D for 50-79)”.

Consider `COc1nc(C(=O)Nc2ccc(Oc3ccnc(C(=O)NCC(F)(F)F)c3)c(F)c2)c(-c2ccc(F)cc2)o1` [Compound 43], for which the inhibition at 5 µM on BRK, on HIPK3, on RIPK2, at PDGFR-b, on TYRO3 and at PDGFR-a was under 50% each time. Further, the inhibition at 5 µM at KIT, on EPH-A4, on TIE2, at P38-b and at MUSK was under 50% each time. The “inhibition of kinase activity, P38-a” value on P38-a is “E (category E is less than 50%)”. The “inhibition of kinase activity, LOK” value on LOK was “E (category E is less than 50%)”.

With `CNC(=O)c1cc(Oc2ccc(NC(=O)c3nc(NC)sc3-c3ccc(F)cc3F)cc2F)ccn1` [Compound 21], the inhibition (commonly the change of the read-out against control, counted positive when it falls) at 5 µM is under 50% on BRK; 50 to 79% on HIPK3; 50 to 79% at RIPK2; under 50% on PDGFR-b; under 50% at TYRO3; under 50% on PDGFR-a. The inhibition at 5 µM on KIT was under 50%; on EPH-A4, under 50%; on TIE2, 50 to 79%; at P38-b, under 50%; at MUSK, under 50%. The “inhibition of kinase activity, P38-a” value at P38-a is “E (category E is less than 50%)”. Moreover, the “inhibition of kinase activity, LOK” value at LOK is given as “E (category E is less than 50%)”.

`CSc1nc(C(=O)Nc2ccc(Oc3ccnc(C(=O)NCC(F)(F)F)c3)c(F)c2)c(-c2ccc(F)cc2)o1` [Compound 40]: the inhibition at 5 µM on BRK was 50 to 79%; at HIPK3 it was under 50%; on RIPK2, under 50%; at PDGFR-b it was under 50%; at TYRO3, under 50%; on PDGFR-a, under 50%. Besides, the inhibition at 5 µM at KIT, on EPH-A4, at TIE2, on P38-b and on MUSK was under 50% in each case. Also, the “inhibition of kinase activity, P38-a” value at P38-a was “D (category D for 50-79)”. The “inhibition of kinase activity, LOK” value at LOK is “E (category E is less than 50%)”.

Turning to `CNC(=O)c1cc(Oc2ccc(NC(=O)c3nc(OCC(F)(F)F)oc3-c3ccc(F)cc3)cc2F)ccn1` [Compound 38], the inhibition at 5 µM on BRK is 90 to 94%; on HIPK3, 50 to 79%; on RIPK2 it was 50 to 79%; on PDGFR-b it was under 50%; on TYRO3, 50 to 79%; on PDGFR-a, under 50%. Moreover, the inhibition at 5 µM is under 50% at KIT; under 50% on EPH-A4; 50 to 79% on TIE2; under 50% at P38-b; under 50% at MUSK. Also, the “inhibition of kinase activity, P38-a” value at P38-a is “D (category D for 50-79)”. For the same molecule, the “inhibition of kinase activity, LOK” value on LOK is “C (C=80%-89% at 5 um)”.

Turning to `CNC(=O)c1cc(Oc2ccc(NC(=O)c3nc(OC4CC4)oc3-c3ccc(F)cc3)cc2F)ccn1` [Compound 32], the inhibition at 5 µM at BRK was at least 95%; at HIPK3, 50 to 79%; at RIPK2, 50 to 79%; at PDGFR-b it was under 50%; at TYRO3, 90 to 94%; at PDGFR-a it was under 50%. For the same molecule, the inhibition at 5 µM on KIT is under 50%; on EPH-A4 it was 50 to 79%; at TIE2, 50 to 79%; at P38-b, 50 to 79%; at MUSK it was under 50%. The “inhibition of kinase activity, P38-a” value on P38-a was “D (category D for 50-79)”. Also, the “inhibition of kinase activity, LOK” value at LOK is given as “B (B=90%-94% at 5 um)”.

Consider `CSc1nc(C(=O)Nc2ccc(Oc3cc4cnn(C)c4cc3Br)c(F)c2)c(-c2ccc(F)cc2)o1` [Compound 2], for which the inhibition at 5 µM at BRK, at HIPK3, on RIPK2, at PDGFR-b, on TYRO3 and at PDGFR-a was under 50% throughout. Further, the inhibition at 5 µM on KIT is under 50%; at EPH-A4, 50 to 79%; at TIE2, 50 to 79%; on P38-b, 50 to 79%; on MUSK, under 50%. For the same molecule, on P38-a, the “inhibition of kinase activity, P38-a” value is “D (category D for 50-79)”. The “inhibition of kinase activity, LOK” value at LOK is “D (category D for 50-79)”.

Regarding `[2H]C([2H])([2H])NC(=O)c1cc(Oc2ccc(NC(=O)c3nc(SC)oc3-c3ccc(F)s3)cc2F)ccn1` [Compound 35], the inhibition at 5 µM on BRK was under 50%; at HIPK3, under 50%; on RIPK2, 50 to 79%; on PDGFR-b it was under 50%; at TYRO3, 50 to 79%; at PDGFR-a, under 50%. Besides, the inhibition at 5 µM at KIT, on EPH-A4, at TIE2, on P38-b and at MUSK was under 50% in each case. On P38-a, the “inhibition of kinase activity, P38-a” value is on record as “E (category E is less than 50%)”. In addition, the “inhibition of kinase activity, LOK” value on LOK was “D (category D for 50-79)”.

The values above are taken from patent US11629143B2, “HipK4 inhibitors and uses thereof” (Vibliome Therapeutics, LLC, priority 2020, dated 2023).
